Test results as given in patent publication US10512652B2, “Use of cymanquine compounds as antimalarial agents” (priority 2015, dated 2019).

Columns and labels:
[1] = tested on: P. falciparum strain D10ydhod; test: [3H]-hypoxanthine incorporation growth inhibition, strain D10ydhod; assay type: cell-based, Plasmodium falciparum; conditions: strain D10ydhod (expresses S. cerevisiae dihydroorotate dehydrogenase)
Method: (§1) P. falciparum strains were cultured under standard conditions in RPMI1640 medium supplemented with 0.5% Albumax in 90% N2, 5% 02 and 5% CO2. A modified version of the [^3H]-hypoxanthine incorporation method was employed for assessing growth inhibition by the inhibitor compounds. Briefly, P. falciparum strain Dd2 or strain D10ydhod (this strain express the Saccharomyces cerevisiae dihydroorotate dehydrogenase enzyme which renders mitochondrial electron transport nonessential in the parasite) parasites were seeded at 2% parasitemia in 96-well plates and treated with varying concentration of the inhibitors as well as the solvent (DMSO) for 24 h. [^3H]-Hypoxanthine was added to the cultures and incubation was continued for an additional 24 h. Incorporation of [^3H]-hypoxanthine by the parasites was determined by liquid scintillation. Growth inhibition was assessed as decrease in [^3H]-hypoxanthine incorporation in treated parasites relative to the control parasites treated with the solvent. The dose-response data were analyzed using nonlinear regression analysis (Prism GraphPad), and the EC50 was derived using an inhibitory sigmoid maximum effect (Emax) model. Each assay is completed in triplicate and the average EC50 was calculated. […]

[2] = Cyclic voltammetry, anodic oxidation; assay type: physicochemical; conditions: irreversible, anodic peak potential, dichloromethane/0.05 M [NBu4][B(C6F5)4]
Method: Electrochemical studies were carried out. The electrolyte solution used for these studies, namely dichloromethane with 0.05 M [NBu4][B(C6F5)4] as the supporting electrolyte, is known to provide an optimum medium for the electrochemical oxidation of compounds containing the MnCp(CO)3 (Cp=η^5-C5H5) backbone (Laws et al., J. Am. Chem. Soc. 2008, 130, 9859). The potentials given here are referred to the ferrocene/ferrocenium reference couple. The experiments were carried out in a controlled atmosphere which minimizes exposure to oxygen and water. We refer to two types of standard electrochemical techniques that are commonly described in books on electrochemistry: cyclic voltammetry and bulk electrolysis (Bard, A. J.; Faulkner, L. R. Electrochemical Methods, John Wiley & Sons, New York, 2001, second edition) The former is useful for the analytical and gross mechanistic aspects of the electron-transfer properties of a compound, whereas the latter is most often employed for the electro-synthetic function of making isolable quantities of electrochemical oxidation or reduction products.
Anodic oxidation of the three compounds was investigated. […]
Table of potentials (vs ferrocene/ferrocenium (FcH)) measured by cyclic voltammetry for oxidation of compounds 3, 4, and 5 in dichloromethane/0.05 M [NBu4][B(C6F5)4]. […]

P. falciparum strain Dd2 = test: [3H]-hypoxanthine incorporation growth inhibition, strain Dd2; assay type: cell-based, Plasmodium falciparum; conditions: multidrug resistant strain Dd2; 24 h treatment + 24 h [3H]-hypoxanthine; average of triplicate
Method: as §1

cymanquine [Compound 3]
potency against strain D10ydhod compared with strain Dd2 [1]: Equivalent potency | Ep(1) ([2]; first oxidation): 0.82 V vs FcH | Ep(2) ([2]; second oxidation): 1.25 V vs FcH | EC50 (P. falciparum strain Dd2): ~0.0108 µM
